The values below come from US11175204B1, “7-hydroxycoumarin-based cell-tracking reagents” (LIFE TECHNOLOGIES CORPORATION, priority 2009, dated 2021).

The test has as its system Human peripheral blood mononuclear cells. Briefly: Cell proliferation tracking by dye dilution, flow cytometry (Biological Application Example 1). The class given is cell-based. As to conditions: 1 μM staining; for loss of fluorescence over 24 hours: initial 24 hours after staining; for fluorescence histogram from stimulated cells / fluorescence intensity and coefficient of variation from unstimulated cells: six days after staining. The protocol:
Human peripheral blood mononuclear cells were isolated from whole blood using a Ficoll density gradient, then washed and resuspended in phosphate buffered saline (DPBS) at a concentration of 10^6/mL. The general procedure used is as follows: • 1. Dilute 8 mL of whole blood into 8 mL of 1×PBS and mix well. • 2. Add 6 mL Ficoll-Paque Plus to a 15-mL centrifuge tube, then layer 8 mL diluted whole blood on top. • 3. Centrifuge 30 min at 400 g, then carefully remove the lymphocyte layer. • 4. Resuspend cells in 25 mL DPBS buffer in a 50-mL conical tube. • 5. Spin tube for 5 min at 200 g, pour off supernatant and resuspend in 25 mL DPBS. • 6. Repeat wash step and resuspend in 300 μL of Isolation Buffer. • 7. Count cells on cellometer; adjust cell concentration to 10^6 cells/mL
Compound 2, Compound 6, Compound 7, and Carboxyfluorescein Diacetate Succinimidyl ester (CFSE) were each dissolved in anhydrous dimethylsulfoxide to a concentration of 1 mM. Aliquots, 4-mL, of cells were then stained with 4 μL of Compound 2, Compound 6, Compound 7, or CFSE for final staining concentrations of 1 μM. Cells were incubated with agitation at room temperature for 20 minutes. Then 2 mL of heat-inactivated Fetal Bovine Serum (FBS) were added, followed by 5 more minutes of incubation. Cells were washed twice with DPBS+10% FBS and resuspended in 4 mL of OpTmizer T-Cell Expansion Buffer (GIBCO) containing 2 mM L-glutamine, and 100,000 units penicillin and 100 mg streptomycin per liter. Aliquots (1-mL) of cells stained with Compound 2, Compound 6, Compound 7, or CFSE, and a 1-ml aliquot of unstained cells were then dispensed into a 24-well polystyrene plate and incubated at 37° C. and 5% CO2 for 24 hours. One of the following four stimulus conditions were then applied individually to the cells: i) 200 ng anti-CD3 (2 μL), incubated on ice for 30 min, then transferred to culture plate and add 100 ng iL-2 per mL of culture media, ii) 5 μg/mL Concanavalin A (5 μL of a 1 mg/mL solution), iii) 75 μL CD3/CD28 T cell expander beads, or iv) no stimulus. The cells were then incubated for 72 additional hours at 37° C. and 5% CO2. Aliquots (500-μL) of cells from each treatment were analyzed immediately following staining, and at 24 hours and six days after staining.
Aliquots (500 μL) of cells were washed and resuspended in PBS, stained with mouse anti-human CD3 or CD8 R-phycoerythrin primary antibody conjugates for 15 minutes, then washed and stained with SYTOX® Red Dead Cell Stain for 5 minutes. Cells were then run through the Becton Dickinson (BD) LSRII Flow Cytometer. Fluorescence was collected using three lasers: the 405 nm excitation laser with 450/50 bandpass emission filter, the 488 nm excitation laser with 585/42 bandpass emission filter, and the 633 nm excitation laser with 660/20 bandpass emission filter. A gating strategy was employed to limit analysis to only the cells of interest. Cells were gated first on SYTOX® Red Dead Cell Stain negative (live) cells, then on R-phycoerythrin positive cells (CD3+ or CD8+ positive). […] CountBright™ Absolute Counting Beads were evaluated in each fluorescence histogram prior to each run to account for day-to-day instrument variations.

On to `CC(=O)Oc1cc2oc(=O)c(C(=O)ON3C(=O)CCC3=O)cc2cc1Cl` [Compound 2], for which the “loss of fluorescence over 24 hours” value is listed as “very little loss of fluorescence”; the “fluorescence histogram from stimulated cells” value (“fluorescence histogram” below) is listed as “distinct peaks corresponding to each generation of cells”; the “fluorescence intensity and coefficient of variation from unstimulated cells” value (shortened to “fluorescence intensity and coefficient”) is on record as “little change from initial staining”.
Take “Carboxyfluorescein Diacetate Succinimidyl ester [CFSE, reference compound]”: the “loss of fluorescence over 24 hours” value was “moderate fluorescence loss”; the “fluorescence histogram” value is listed as “distinct peaks corresponding to each generation of cells”; the “fluorescence intensity and coefficient” value is “little change from initial staining”.
With `CC(=O)OCOc1cc2oc(=O)c(C(=O)N3CCC(C(=O)ON4C(=O)CCC4=O)CC3)cc2cc1Cl` [Compound 7], the “loss of fluorescence over 24 hours” value was “very little loss of fluorescence”; the “fluorescence histogram” value is listed as “distinct peaks corresponding to each generation of cells”; the “fluorescence intensity and coefficient” value is reported as “little change from initial staining”.
Regarding `CC(=O)Oc1cc2oc(=O)c(C(=O)N3CCC(C(=O)ON4C(=O)CCC4=O)CC3)cc2cc1Cl` [Compound 6], the “loss of fluorescence over 24 hours” value is “very little loss of fluorescence”; the “fluorescence histogram” value is on record as “distinct peaks corresponding to each generation of cells”; the “fluorescence intensity and coefficient” value is “little change from initial staining”.
